Patent US9241928B2, “Antimicrobial compounds” (The General Hospital Corporation, priority 2009, dated 2016)
≈ marks a conversion by molar mass, not a printed value.

How the values were obtained:
E. faecalis MMH594 = assay: MIC assay, E. faecalis in vitro; format: cell-based; conditions: Enterococcus faecalis; E. faecalis MMH594 in 20% BHI, 80% M9, 37° C., 15 hours, scored by eye
Protocol: A culture of E. faecalis MMH594 was grown overnight in BHI broth to stationary phase at 37° C. with aeration. The culture was diluted to an approximate density of […] in worm infection media (20% BHI, 80% M9 buffer). 12.5 μl of the bacterial culture dilution was inoculated into 384-well plates containing 12.5 μl of 2-fold serial dilutions of a test compound. […] Plates were incubated at 37° C. for 15 hours and scored by eye for bacterial growth.

[1] = test system: C. elegans infected with E. faecalis; assay: Dose response time courses in the C. elegans-E. faecalis infection assay; format: in vivo, Caenorhabditis elegans; conditions: Effective Concentration: survival significantly different from mock-treated, p-value <0.05, logrank; read-out: EC
Protocol: (§1) glp-4(bn2); sek-1 (km4) mutant worms were grown to gravid adult stage. 1,000 worms at the L1 stage were grown for 5.2 days at 15° C. on 9-cm plates of SK agar media spread with a lawn of E. coli strain HB101. Embryos from the gravid adults were isolated by a previously described hypochlorite method (see Tan et al., (1999) Proc. Natl. Acad. Sci. USA 96, 715-720) and hatched at 15° C. for 2 days. Approximately 4,500 of the Ll hatchlings were grown on each 9-cm plate of SK-NS agar (SK media with 62.5 U/ml nystatin and 100 μg/ml streptomycin) and with lawns of E. coli HB101. These worms were grown at 25° C. for 52 hours to generate sterile, young adults.
(§2) A culture of E. faecalis MMH594 was grown in BHI broth (BD Difco) with 80 μg/ml kanamycin at 37° C. for 6 hours and 100 μl of the culture were spread onto each 9-cm plate of BHI agar containing 80 μg/mlkanamycin. Lawns of E. faecalis were grown at 25° C. for 16 hours and transferred to 15° C. for 8 hours.
(§3) Sterile adult worms were resuspended in M9 buffer and washed twice with M9 in a 1:10 ratio to remove E. coli. 8,000 worms were pipetted onto each lawn of E. faecalis and incubated 15 hours at 15° C. After infection, the worms were resuspended in M9 and used as described below. 384-well plates (Corning #3712) were filled with 55 μl media (see below) using a Thermo Scientific MULTIDROP Combi reagent dispenser. 0.3 μl of a candidate compound in DSMO were pin transferred into each well using a CyBio CYBI-Well vario transfer system. The plates were agitated using an Eppendorf MIXMATE at 1,800 rpm for 15 seconds. Using the Union Biometrica Complex Object Parametric Analyzer and Sorter (COPAS) BIOSORT worm sorter according to manufacturer's protocols, 15 of the infected worms were transferred to each well in a total volume of approximately 15 μl. Total volume per well is 70 μl/well with a final composition of the media being 20% BHI, […], 80 μg/ml kanamycin, 62.5 U/ml nystatin, 1% DMSO, and 19% sheath solution (Union Biometrica Part #300-5101-000). Plates were vortexed for 5 seconds, centrifuged at 1000×g for 10 seconds, and sealed with gas permeable membranes (BREATHEASY Diversified). Plates were placed in a single layer on the top shelves in a 26.3° C. incubator at 85% relative humidity (RH) and incubated without agitation for 5 days.
The dose dependence of certain antimicrobial compounds identified by the assay above were studied. These compounds were purchased in a larger amount from commercial sources. For each of these compounds, an infection assay was performed essentially as described above at different concentrations except that SYTOX staining was not used. Instead, bright-field images of the wells were acquired at daily time points and scored manually for worm survival by analyzing worm body positioning. […] All compounds used in this assays were confirmed for their identity and purity by liquid chromatography/mass spectrometry.

[2] = test system: MRSA infection in Caenorhabditis elegans; assay: MRSA infection assay in C. elegans (liquid); format: in vivo; conditions: 5 days
Description: To screen/test candidate compounds for their efficacy against Methicillin-resistant Staphylococcus aureus (MRSA) using Caenorhabditis elegans (C. elegans), a liquid high throughput screening assay was developed. In contrast to the Enterococcus faecalis infection assay, where worms are pre-infected with E. faecalis on agar prior to the start of the screening assay and then infected worms are transferred to microtiter plates using the COPAS BioSort robot, the infection of worms with MRSA occurred directly in the liquid medium. This liquid infection protocol with MRSA was developed because the COPAS BioSort, the large particle sorter used to dispense worms into multiwell plates, is a pressurized system that can generate aerosols. Because MRSA is a potentially dangerous pathogen for immune competent individuals, sorting MRSA-infected worms in the COPAS BioSort was deemed to be potentially hazardous.
The MRSA infection assay was carried out by incubating C. elegans with three MRSA strains (i.e., USA100, USA400 and MW2) in 96 or 384-well microtiter plates and assessing whether worms were live or dead after a 5 day incubation.
The MRSA infection assay was performed as follows: Worms were grown on agar using non-pathogenic E. coli as a food source until they reached the L4/young adult stage. A small volume of M9 buffer was added to the agar plates to float worms gently off the food source. The worms were then transferred into a large conical tube and washed 2 times by allowing worms to settle, aspirating the supernatant and adding fresh M9 buffer. 15 worms were then transferred using a COPAS BioSort large particle sorter into a 96-well plate containing […] of M9. […] After the worms were stained for 18 hours, images of the plates were acquired in bright field and red fluorescence channels using a Molecular Devices Discovery-1 or ImageXpress automated microscopy system. The total number of worms was counted in the bright field image and the number of dead animals are determined by positive SYTOX staining. […]

[3] = test system: E. faecalis strain MMH594; assay: Antimicrobial (bacterial killing) assay; format: cell-based, Enterococcus faecalis; conditions: mM concentrations, 1 to 30 minutes, room temperature
Protocol: Compounds 6, 7, 15 were purchased from TimTec and ChemDiv, dissolved in DMSO at a concentration of 5 or 10 mg/ml, and further diluted in DMSO as indicated. E. faecalis strain MMH594 was grown overnight with aeration at 37° C. in Bacto brain heart infusion (BHI) broth (Becton Dickinson), transferred to ice, and washed in phosphate-buffered saline (PBS; pH 7.2). Equal volumes of a dissolved compound and bacteria were mixed, incubated at room temperature for 1 to 30 minutes, ten-fold serially diluted in PBS, and plated in […] droplets on BHI agar plates. Plates were incubated at room temperature until colonies were visible.

[4] = test system: C. elegans infected with E. faecalis; assay: Automated infection assay for primary compound screening (SYTOX staining, CELLPROFILER); format: in vivo, Caenorhabditis elegans
Protocol: In general, the area of each well that is SYTOX-positive in the fluorescence image is measured and normalized by the total area occupied by all worms, which is quantified in the bright field image. This typically requires illumination correction to flatten lighting abnormalities, adaptive thresholding, and size- and contrast-based filters and masks to exclude debris and other artifacts. By calculating the ratio of the fluorescent area (which corresponds to the area occupied by dead worms) to the total area occupied by all worms, one can accurately determine the number of dead worms in each well. […] In a well where the worms are rescued by ampicillin treatment, 3 of the 14 worms were dead based on manual scoring. The ratio of the fluorescent area to the area occupied by all worms obtained by the CELLPROFILER analysis is correspondingly low at 0.12.
as §1, §2, §3
After 5 days, the bacteria and liquid media in the assay plates were removed as described below. First, the bacteria were re-suspended by shaking on the MIXMATE for 15 seconds at 1,800 rpm, the sealing membrane was removed, and the worms were allowed to settle to the bottom of the wells for 3 minutes. […]

Row | SMILES | MIC (E. faecalis MMH594) [µg/mL] | minimal effective concentration [1] [µg/mL] | bactericidal activity (FIGS. 7A and 7B) [3] | other results
1 | Oc1c(C(Nc2ccccn2)c2ccccc2F)cc(Cl)c2cccnc12 (stereo not shown) [Compound 1] | 12.5 (≈ 32.9 µM) | 0.78 | – | –
2 | Oc1c(C(Nc2ccccn2)c2cccc(F)c2)cc(Cl)c2cccnc12 (stereo not shown) [Compound 2] | 25 (≈ 65.8 µM) | 1.56 | – | –
3 | Oc1c(C(Nc2ccccn2)c2ccccn2)cc(Cl)c2cccnc12 (stereo not shown) [Compound 3] | 12.5 (≈ 34.5 µM) | 3.13 | – | survival of MRSA-infected worms (FIG. 4) ([2]; 6.25 and 12.5 μg/ml): resulted in survival of MRSA-infected worms
4 | CC(=O)O [acetic acid, reference compound] | – | – | did not show any bactericidal activity | –
5 | CC1(C)S[C@@H]2[C@H](NC(=O)[C@H](N)c3ccccc3)C(=O)N2[C@H]1C(=O)O [ampicillin] | – | – | – | z-score, screen average ([4]; ampicillin-treated wells, 21 μg/ml): −8.70; dead worms based on manual scoring ([4]; of 14 worms in the well, ampicillin treatment): 3; ratio of the fluorescent area to the area occupied by all worms (CELLPROFILER) ([4]; well where worms are rescued by ampicillin treatment): 0.12
6 | CCC(=O)O [propionic acid, reference compound] | – | – | did not show any bactericidal activity | –

The next lines start with results.

Row | MIC (E. faecalis MMH594) [µg/mL] | SMILES | minimal effective concentration [1] [µg/mL] | bactericidal activity (FIGS. 7A and 7B) [3] | other results
7 | 1.56 (≈ 5.07 µM) | CC(C)(C)C1=NN(c2nc3ccc(Cl)cc3s2)C(=O)C1 [Compound 4] | 0.39 | – | –
8 | > 100 | O=C(CCSCc1ccc(Cl)cc1)N1CCN(c2ccccc2)CC1 [Compound 7] | 25 | did not show any bactericidal activity | –
9 | > 100 | CSc1ccc(-c2cccs2)nn1 [Compound 8] | 3.13 | – | –
10 | > 100 | Cc1c(O)ccc(/C=N/Nc2nc(-c3ccc(Br)cc3)nc3ccccc23)c1O [Compound 9] | 3.13 | – | survival of MRSA-infected worms (FIG. 4) ([2]; 25 and 50 μg/ml): resulted in survival of MRSA-infected worms
